# Data from patent US20250223306A1, “TEAD INHIBITORS AND METHODS OF USE” (Sporos BioDiscovery, Inc., priority 2022, published 2025).
# pEC50: −log10 of the molar value.
# Assays:
# [1] = test system: BHY cells; assay: BHY proliferation and cell viability assay (CTG); type: cell-based; conditions: BHY cell line, 144 hours
# Procedure: BHY cells were trypsinised, counted and plated at the specified cell density in 200 μl of growth media in 96 well flat bottom tissue culture treated plates. The plated cells were incubated overnight at 37° C., 5% CO2 before being treated with compounds in triplicate for each assay point. 50 μl of the serially diluted compound was added to each well giving a final DMSO concentration of 0.5% per well and a total volume of 250 μl per well. The treated cells were incubated for 144 hours (6 days) at 37° C., 5% CO2. Following compound treatment, the remaining viable cells were detected using the Promega CellTiter-Glo 2.0 assay as follows: 150 μl of media was removed from each of the wells to be assayed and 100 μl of room temperature CellTiter-Glo 2.0 reagent was added. The plate was placed on an orbital shaker at 500 rpm at room temperature for 2 minutes, and then incubated without shaking for a further 10 minutes at room temperature. 150 μl of cell lysate was removed from each well and dispensed into a single well of a white opaque 96 well plate. Luminescence at 545 nm was read using a BMG CLARIOstar plate reader. The luminescent signal was directly proportional to number of viable cells, the percent of viable cells relative to the DMSO control was then calculated for each assay point. Percent viability relative to DMSO control was plotted against compound concentration and a curve fitted with non-linear regression in GraphPad
# Prism software. EC50 and IC50 values are calculated using GraphPad Prism software as follows: For EC50 values, a non-constrained four-parameter logistic curve fit was used (Sigmoidal, 4PL, X is concentration). For Absolute IC50 values the baseline was constrained to Y=0 (Absolute IC50, X is concentration). Area Under the Curve (AUC): Prism computes area-under-the-curve by the trapezoidal method. The analysis sees a fitted curve as simply a series of connected XY points. Prism simply computes the area under the “curve” defined by connecting the points by straight lines. The units of the AUC are the units of the Y axis times units of the X axis.
# [2] = test system: MSTO-211H cells; assay: MSTO-211H proliferation and cell viability assay (CTG); type: cell-based; conditions: Homo sapiens, MSTO-211H cell line, 144 hours
# Procedure: MSTO-211H cells were trypsinised, counted and plated at the specified cell density in 200 μl of growth media in 96 well flat bottom tissue culture treated plates. The plated cells were incubated overnight at 37° C., 5% CO2 before being treated with compounds in triplicate for each assay point. 50 μl of the serially diluted compound was added to each well giving a final DMSO concentration of 0.5% per well and a total volume of 250 μl per well. The treated cells were incubated for 144 hours (6 days) at 37° C., 5% CO2. Following compound treatment, the remaining viable cells were detected using the Promega CellTiter-Glo 2.0 assay as follows: 150 μl of media was removed from each of the wells to be assayed and 100 μl of room temperature CellTiter-Glo 2.0 reagent was added. The plate was placed on an orbital shaker at 500 rpm at room temperature for 2 minutes, and then incubated without shaking for a further 10 minutes at room temperature. 150 μl of cell lysate was removed from each well and dispensed into a single well of a white opaque 96 well plate. Luminescence at 545 nm is read using a BMG CLARIOstar plate reader. The luminescent signal was directly proportional to number of viable cells, the percent of viable cells relative to the DMSO control was then calculated for each assay point. Percent viability relative to DMSO control was plotted against compound concentration and a curve fitted with non-linear regression in GraphPad Prism software. IC50 values were calculated using GraphPad Prism software as follows: For Relative IC50 values a non-constrained four-parameter logistic curve fit was used (Sigmoidal, 4PL, X is concentration). For Absolute IC50 values the baseline was constrained to Y=0 (Absolute IC50, X is concentration). Area Under the Curve (AUC): Prism computes area-under-the-curve by the trapezoidal method. The analysis sees a fitted curve as simply a series of connected XY points. Prism simply computes the area under the “curve” defined by connecting the points by straight lines. The units of the AUC are the units of the Y axis times units of the X axis.
# [3] = biological target: TEAD4 (Homo sapiens, UniProt Q15561); assay: TEAD thermal shift assay (TSA); type: binding
# [4] = biological target: TEAD3 (Homo sapiens, UniProt Q99594); assay: TEAD thermal shift assay (TSA); type: binding
# [5] = biological target: TEAD2 (Homo sapiens, UniProt Q15562); assay: TEAD thermal shift assay (TSA); type: binding
# [6] = biological target: TEAD1 (Homo sapiens, UniProt P28347); assay: TEAD thermal shift assay (TSA); type: binding
# [7] = ratio of protein to compound 1:1
# [8] = ratio of protein to compound 1:3
# TEAD2, sequence (Q15562 whole entry): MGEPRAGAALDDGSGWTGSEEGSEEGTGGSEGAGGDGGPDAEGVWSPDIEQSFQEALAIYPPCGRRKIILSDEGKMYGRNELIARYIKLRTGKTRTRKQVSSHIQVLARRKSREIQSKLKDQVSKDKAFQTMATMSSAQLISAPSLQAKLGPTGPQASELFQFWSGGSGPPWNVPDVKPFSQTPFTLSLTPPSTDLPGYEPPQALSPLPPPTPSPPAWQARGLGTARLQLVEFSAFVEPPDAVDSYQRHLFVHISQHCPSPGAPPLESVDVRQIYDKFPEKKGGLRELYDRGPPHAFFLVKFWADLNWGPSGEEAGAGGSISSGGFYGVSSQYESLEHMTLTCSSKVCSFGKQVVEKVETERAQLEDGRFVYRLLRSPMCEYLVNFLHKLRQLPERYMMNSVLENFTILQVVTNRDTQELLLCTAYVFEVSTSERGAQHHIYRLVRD
# TEAD1, sequence (P28347 whole entry): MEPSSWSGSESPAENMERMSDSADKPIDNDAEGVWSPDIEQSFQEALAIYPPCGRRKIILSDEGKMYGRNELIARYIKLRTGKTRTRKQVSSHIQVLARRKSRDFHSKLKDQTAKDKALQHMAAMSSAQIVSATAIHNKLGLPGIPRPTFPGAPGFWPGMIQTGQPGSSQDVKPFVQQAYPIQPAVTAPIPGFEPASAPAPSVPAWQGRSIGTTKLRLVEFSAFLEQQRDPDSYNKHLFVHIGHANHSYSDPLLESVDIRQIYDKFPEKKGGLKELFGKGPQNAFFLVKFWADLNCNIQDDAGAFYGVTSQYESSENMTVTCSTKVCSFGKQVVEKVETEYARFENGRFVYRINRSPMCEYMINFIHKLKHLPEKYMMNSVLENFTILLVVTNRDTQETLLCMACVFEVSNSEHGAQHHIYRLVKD
# TEAD4, sequence (Q15561 whole entry): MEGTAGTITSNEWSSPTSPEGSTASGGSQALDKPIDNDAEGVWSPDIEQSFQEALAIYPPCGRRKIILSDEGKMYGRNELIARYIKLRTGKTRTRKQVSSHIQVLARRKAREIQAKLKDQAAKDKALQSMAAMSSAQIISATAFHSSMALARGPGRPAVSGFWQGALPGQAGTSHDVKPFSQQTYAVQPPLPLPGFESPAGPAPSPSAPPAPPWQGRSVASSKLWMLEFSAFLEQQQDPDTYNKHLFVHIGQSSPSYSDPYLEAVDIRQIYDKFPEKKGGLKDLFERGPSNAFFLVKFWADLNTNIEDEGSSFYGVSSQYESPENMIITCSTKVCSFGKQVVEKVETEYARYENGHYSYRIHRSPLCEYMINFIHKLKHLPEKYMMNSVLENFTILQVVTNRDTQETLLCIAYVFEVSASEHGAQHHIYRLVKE
# TEAD3, sequence (Q99594 whole entry): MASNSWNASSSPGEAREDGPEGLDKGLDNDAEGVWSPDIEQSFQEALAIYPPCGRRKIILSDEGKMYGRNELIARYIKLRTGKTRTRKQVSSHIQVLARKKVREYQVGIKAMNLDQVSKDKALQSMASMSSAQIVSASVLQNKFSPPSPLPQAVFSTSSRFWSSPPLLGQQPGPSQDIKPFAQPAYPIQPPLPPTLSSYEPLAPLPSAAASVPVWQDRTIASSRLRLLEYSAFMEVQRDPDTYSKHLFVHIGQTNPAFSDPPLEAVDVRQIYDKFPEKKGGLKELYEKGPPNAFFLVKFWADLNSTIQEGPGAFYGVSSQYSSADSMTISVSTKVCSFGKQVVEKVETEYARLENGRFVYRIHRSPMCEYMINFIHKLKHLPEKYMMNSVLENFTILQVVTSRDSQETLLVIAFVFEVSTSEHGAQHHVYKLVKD
smiles,measurement,setting,value
"C[C@H](NC(=O)c1cnc2c(C3=CC[C@@H](C(F)(F)F)CC3)cccc2c1)c1ncco1 (single isomer, unassigned) [Compound 19, N-(1-(oxazol-2-yl)ethyl)-8-(4-(trifluoromethyl)cyclohex-1-en-1-yl)quinoline-3-carboxamide]",pEC50,[1],> 6.70
same,pEC50,[2],> 6.70
same,TEAD4 ΔTm,[3]; [7],2 °C
same,TEAD4 ΔTm,[3]; [8],3 °C
same,TEAD3 ΔTm,[4]; [7],2 °C
same,TEAD3 ΔTm,[4]; [8],4 °C
same,TEAD2 ΔTm,[5]; [7],2 °C
same,TEAD2 ΔTm,[5]; [8],3 °C
same,TEAD1 ΔTm,[6]; [7],12 °C
same,TEAD1 ΔTm,[6]; [8],12 °C
